Series [1] is described as follows: In vivo stain formation test on beagles (oral spray). Set-up: species or system Beagle dogs. The text has this: This treatment was continued daily for 7 weeks. […] Score results range from 0 to 4:
1 stain present covering one-fourth of tooth surface;
2 stain present covering one-half of tooth surface;
3 stain present covering three-fourths of tooth surface;
4 stain present covering entire tooth surface.
(§1) The animals used in these studies were registered Beagle dogs 6 to 8 months of age, weighing 8 to 10 kilos. The animals were kept in good health and had not received any treatment for at least three weeks prior to the start of a study. They were anaesthesized (Na-Nembutal 25-30 mgs/kg) and received a complete dental prophylaxis. Disclosing solution (TRACE, Erythrosine, Lorvic St. Louis, Mo. U.S.A.) was used to insure the complete removal of soft and hard dental deposits. The dogs receive this diet exclusively -- ground Purina Dog Chow soaked in water for at least two hours to form a soft mush. In addition, each animal receives approximately one-half can of ground beef (no chunks). No hard substances were permitted for the duration of the study. The animals were treated once daily with the test solutions (approx. 6 to 9 ml.) using a gentle spray over all surfaces of dentition. Treatments continued at least five days per week for the duration of the experiment. Each animal was examined weekly for plaque, and stain. Photographs were taken by the examining investigator immediately after the prophylaxis and at every examination. Before starting with the plaque study, the groups were balanced with respect to plaque formation.

Series [2] in a line: In vivo plaque test on beagles (disclosing solution). Set-up: species or system Beagle dogs. The note with it: for PLAQUE Mean Score: Table II, score 1-4, 20 teeth per beagle, placebo 2.19, benzethonium chloride at .075%; for PLAQUE % Diff.: versus placebo, Signif. printed: 50/50 mixture N.S., 90% betaine 95%, Hibitane 95%, .075% benzethonium chloride 99%.
Source text: as §1, with “The animals were kept in good health and had not received any treatment for at least three weeks prior to the start of a study.” left out

The subject of a further series is A. naeslundi. As to the kind of experiment: Minimum inhibitory concentration, test tube serial dilution test. It counts as cell-based, Actinomycetis naeslundii. The conditions noted are these: Actinomyces naeslundii, Gram Positive. As for the experimental part: (§2) The antimicrobial nature of the instant novel nontoxic compounds was shown by a standard test tube serial dilution test in which an appropriate number of test tubes of broth containing decreasing concentration of the test agent was innoculated with the test organism (0.1% in 95% ethyl alcohol). After a suitable period of incubation, the tubes were examined for the presence or absence of growth. The activity of the test agent was the lowest concentration which inhibited the growth of the organism and is expressed as the minimal inhibitory concentration in μgm/ml.

Another series concerns A. niger. Described as above. Type of series: cell-based. The note with it: Aspergillus niger, mold. On the procedure: as §2
The next series has as its system C. albicans. The series is described as above. Type of series: cell-based. The conditions noted are these: Candida albicans, yeast. As for the experimental part:
as §2

A further series deals with E. Coli. Described as above. Type of series: cell-based. The conditions noted are these: Escherichia coli, Gram Negative. As for the experimental part:
as §2

The test system of a further series is Ps. aeruginosa. Described as above. The note with it: Pseudomonas aeruginosa, Gram Negative. It counts as cell-based. As for the experimental part:
as §2

The next series relates to Staphylococcus aureus. Described as above. It counts as cell-based. The note with it: S. aureus, Gram Positive. As for the experimental part: as §2
In another series the test system is Strep. mutans. The series is described as above. Type of series: cell-based. The note with it: Streptococcus mutans, Gram Positive. On the procedure:
as §2

Another series deals with Strep. sanguis. The series is described as above. It counts as cell-based. The note with it: Streptococcus, Gram Positive. As for the experimental part: as §2
Another series has as its system T. ment. The series is described as above. It counts as cell-based, Trichophyton mentogrophytes. The note with it: Trichophyton, mold. As for the experimental part: as §2
Another series relates to bacteria. The note with it: Stedman et al. 1953; cited from earlier work.
The test system of series [3] is micro-organisms. As to the kind of experiment: Antimicrobial activity (general statements). It counts as cell-based. As for the experimental part:
as §2, with “μgm/ml. As shown in the following table of anitmicrobial data, the betaines of this invention are active against a variety of micro-organisms with maximum activity when the higher alkyl group has 14-16 carbons.” for “μgm/ml.”

Series [4] concerns micro-organisms. The conditions noted are these: reported by Swain et al. and Stedman et al.; cited from earlier work.
Series [5] in a line: Staining of teeth / oral surfaces (general statements). Type of series: in vivo. The conditions noted are these: under use conditions.

Structures can show the parent of a compound that is named as a salt.

With `CC(C)(C)CC(C)(C)c1ccc(OCCOCC[N+](C)(C)Cc2ccccc2)cc1` [Benzethonium Chloride, benzethonium chloride], in series [1] (0.1% aqueous solution, daily spray, 7 weeks, 10 dogs, score 0-4, deionized water 0.07), the “Mean Stain Result” value came out at 0.59. For the same compound, the increase in staining in [1] (0.1% solution, 7 weeks, versus deionized water) was found to be 742%. Besides, in series [1] (Table II, dogs with stain/dogs tested, placebo 1/8, benzethonium chloride at .075%), the “No. of dogs w. Stain” value is 3/7. The “Mean Stain Score” value in series [1] (Table II, score 0-4, placebo 0.388, benzethonium chloride at .075%) is reported as 0.53. Moreover, in series [2], the “PLAQUE Mean Score” value was 1.80 and the “PLAQUE % Diff.” value is reported as -25.0%.

As a reminder, the MIC is the lowest concentration found to suppress growth. A low value points to inhibition by little substance. With `CCCCCCCCCCCC[N+](C)(C)CCCCCCCCCCC(=O)O` [C12 H25 [RN^+ (CH3)2 (CH2)10 COOH] Pr^-], the minimum inhibitory concentration (MIC) with A. naeslundi amounted to 12.5 µg/mL; against A. niger, 50 µg/mL; with C. albicans it was 25 µg/mL; in the series with E. Coli, 100 µg/mL; with Ps. aeruginosa it was 50 µg/mL; with Staphylococcus aureus, 6.25 µg/mL. The MIC in the series with Strep. mutans, against Strep. sanguis and in the series on T. ment. was 12.5 µg/mL throughout.

For the compound `CCCCCCCCCCCCCC[N+](C)(C)CCCCCCCCCCC(=O)[O-]` [C14 H29 RN^+ CH3)2 (CH2)10 COOH, N-(10-Carboxydecyl)-N, N-dimethyltetradecanaminium hydroxide, inner salt], the MIC in the series with A. naeslundi worked out at 0.39 µg/mL; against A. niger, 50 µg/mL; against C. albicans it was 3.12 µg/mL; against E. Coli, 100 µg/mL; in the series on Ps. aeruginosa, 100 µg/mL; in the series with Staphylococcus aureus it was 1.56 µg/mL. The minimal inhibitory concentration (MIC) against Strep. mutans was found to be 1.56 µg/mL; against Strep. sanguis, 1.56 µg/mL; in the series on T. ment., 0.78 µg/mL.

`CCCCCCCCCCCCCC[N+](C)(C)CCCCCCCCCCC(=O)O.[Br-]` [C14 H29 [RN^+ (CH3)2 (CH2)10 COOH] Pr^-, tetradecyldimethyl(10-carboxydecyl)-ammonium bromide]: the minimum inhibitory concentration (MIC) with A. naeslundi was 0.39 µg/mL; against A. niger, 25 µg/mL; against C. albicans, 3.12 µg/mL; against E. Coli, 100 µg/mL; against Ps. aeruginosa, 50 µg/mL; in the series on Staphylococcus aureus it was 0.39 µg/mL. For the same compound, the values for the MIC in the series with Strep. mutans, against Strep. sanguis and against T. ment. were 1.56 µg/mL, 1.56 µg/mL and 3.12 µg/mL, respectively.

On to `CCCCCCCCCCCCCCCC[N+](C)(C)CC(=O)[O-]` [C16 H33 N^+ (CH3)2 CH2 COO^-], for which the “bactericidal activity relative to related non-betaine [C16 H33 N(CH3)2 CH2 C6 H5 ]Cl” value in the series on bacteria was “less than one-tenth”.

With `CCCCCCCCCCCCCCCC[N+](C)(C)CCCCCCCCCCC(=O)[O-]` [C16 H33 RN^+ CH3)2 (CH2)10 COOH, N-(10-Carboxydecyl)-N,N-dimethylhexadecanaminium hydroxide, inner salt], the minimal inhibitory concentration (MIC) against A. naeslundi was 0.78 µg/mL; in the series with A. niger, 100 µg/mL; in the series on C. albicans, 3.12 µg/mL; in the series on E. Coli, 100 µg/mL; with Ps. aeruginosa it was 100 µg/mL; against Staphylococcus aureus it was 1.56 µg/mL. The MIC was found to be 1.56 µg/mL against Strep. mutans, 0.78 µg/mL in the series on Strep. sanguis and 1.56 µg/mL in the series with T. ment.. In the series on micro-organisms [3], the “antimicrobial activity” value is “the activity is not diminished and is sufficient for the exhibition of useful antimicrobial and anti-plaque properties”.

As to `CCCCCCCCCCCCCCCC[N+](C)(C)CCCCCCCCCCC(=O)O.[Br-]` [C16 H33 [RN^+ (CH3)2 (CH2)10 COOH] Pr^-, Hexadecyldimethyl(10-carboxydecyl)ammonium bromide], the MIC is 0.78 µg/mL against A. naeslundi; 50 µg/mL in the series with A. niger; 3.12 µg/mL against C. albicans; 100 µg/mL in the series on E. Coli; 50 µg/mL with Ps. aeruginosa; 0.39 µg/mL in the series on Staphylococcus aureus. For the same compound, the values for the MIC against Strep. mutans, against Strep. sanguis and in the series on T. ment. were 1.56 µg/mL, 1.56 µg/mL and 12.5 µg/mL, respectively. The “antimicrobial properties” value with micro-organisms [4] is “reported to have antimicrobial properties”.

Regarding `[H]/N=C(\N/C(=N/[H])NCCCCCCNC(=N)NC(=N)Nc1ccc(Cl)cc1)Nc1ccc(Cl)cc1` [Hibitane, Chlorhexidine], in [1] (dog, in vivo), the “Mean Stain Score” value is 0.956, the “No. of dogs w. Stain” value is listed as 8/8 and the “degree of staining” value is given as “significantly increased staining”. Also, in [2], the “PLAQUE Mean Score” value was 1.32 and the “PLAQUE % Diff.” value was -39.7%. The “staining / discoloration” value in [5] was “noticeable discolorations”.

Values taken from US4130637A, “Anti-plaque agents” (Colgate-Palmolive Company, priority 1977, dated 1978).
